Values of other authors, collected in patent publication US10550245B2, “Alternative methods to control crosslinking in high impact polystyrene” (Fina Technology, Inc., priority 2015, dated 2020).
Like-named read-outs stand apart in the source and are kept apart here.

Compound: CCCCCCCCSc1nc(Nc2cc(C(C)(C)C)c(O)c(C(C)(C)C)c2)nc(SCCCCCCCC)n1 [BNX ® 565, 2,6-di-tert-butyl-4-(4,6-bis(octylthio)-1,3,5-triazin-2-ylamino)phenol]
- Solubility (wt. %), Acetone (Table 2): 20 wt. %
- Solubility (wt. %), Benzene (Table 2): 43 wt. %
- Solubility (wt. %), Chloroform (Table 2): 39 wt. %
- Solubility (wt. %), Ethyl Acetate (Table 2): 46 wt. %
- Solubility (wt. %), Hexane (Table 2): 6 wt. %
- Solubility (wt. %), Methanol (Table 2): 1.4 wt. %
- Solubility (wt. %), Water (Table 2): <0.01 wt. %

Compound: CC(C)(C)c1cc(CCC(=O)OCC(COC(=O)CCc2cc(C(C)(C)C)c(O)c(C(C)(C)C)c2)(COC(=O)CCc2cc(C(C)(C)C)c(O)c(C(C)(C)C)c2)COC(=O)CCc2cc(C(C)(C)C)c(O)c(C(C)(C)C)c2)cc(C(C)(C)C)c1O [BNX ® 1010, tetrakis[methylene-3(3′,5′-di-tert-butyl-4-hydroxyphenyl)propionate]methane]
- Solubility (10 g/100 ml Toluene) (10 g/100 ml Toluene, 25° C.): Clear (25° C.)
- Solubility, Acetone (at 25° C., Table 5B): 47%
- Solubility, Benzene (at 25° C., Table 5B): 56%
- Solubility, Chloroform (at 25° C., Table 5B): 71%
- Solubility, Ethanol (at 25° C., Table 5B): 1.5%
- Solubility, Ethyl Acetate (at 25° C., Table 5B): 46%
- Solubility, Hexane (at 25° C., Table 5B): 0.3%
- Solubility, Methanol (at 25° C., Table 5B): 1%
- Solubility, Methylene Chloride (at 25° C., Table 5B): 63%
- Solubility, Toluene (at 25° C., Table 5B): 60%
- Solubility, Water (at 25° C., Table 5B): <0.01% ^

Compound: CC(C)(C)c1cc(CCC(=O)NCCCCCCNC(=O)CCc2cc(C(C)(C)C)c(O)c(C(C)(C)C)c2)cc(C(C)(C)C)c1O [BNX ® 1098]
- Solubility, 80% Caprolactam + 20% water (at 25° C.): 3 g/100 ml solvent
- Solubility, 95% Caprolactam + 5% water (at 25° C.): >20 g/100 ml solvent
- Solubility, Acetone (at 25° C.): 2 g/100 ml solvent
- Solubility, Benzene (at 25° C.): 0.01 g/100 ml solvent
- Solubility, Caprolactam (at 25° C.): >20 g/100 ml solvent
- Solubility, Chloroform (at 25° C.): 6 g/100 ml solvent
- Solubility, Ethyl Acetate (at 25° C.): 1 g/100 ml solvent
- Solubility, Hexane (at 25° C.): 0.01 g/100 ml solvent
- Solubility, Methanol (at 25° C.): 6 g/100 ml solvent
- Solubility, Water (at 25° C.): 0.01 g/100 ml solvent
